Assay results reported in patent US10934267B2, “Alpha-tea salt forms: compositions and uses for treating disease” (Research Development Foundation, priority 2013, dated 2021).

Tests used:
[1] = cited from earlier work; for Class (safety and pharmaceutical acceptability of the counter-ions): salt forming base; for Counter Ion Class: Table 6 summary
[2] = salt forming base; cited from earlier work
[3] = Stability of stressed salts and free acid by HPLC total area normalization; conditions: for Stability compared to free acid: Table 6 summary, in solution
Procedure: The scaled up salts and free acid were challenged by heat (solids stored at 25 and 60° C. for 1 week), oxidation (solids stored in oxygen headspace at 25° C. for 1 week), light (solids exposed≥1×ICH International Conference on Harmonization of Technical Requirements for Registration of Pharmaceuticals for Human Use UV confirmatory conditions), and solutions (HPLC diluent-methanol) at 25 and 40° C. for 1 week.
These samples were analyzed, along with unstressed controls, by HPLC to characterize their stability.
Salt candidates were analyzed by total area normalization (TAN). The samples were dissolved in methanol at a concentration of 0.8 mg/mL.
The three salts (lysine, arginine, and tris) were challenged using heat (solids stored at 25 and 60° C. for 1 week), oxidation (solids stored in oxygen headspace at 25° C. for 1 week), light (UV source under ICH confirmatory conditions>200 Whr/m^2), and solutions (in HPLC diluent) at 25 and 40° C. for 1 week. Stressed samples were analyzed using HPLC to determine their impurity profiles.

[4] = Hygroscopicity - Dynamic Vapor Sorption (DVS); conditions: for DVS total weight gain: at 95% RH, 25° C.; for Hydration properties DVS: hydrate formed: Table 6 summary
Procedure: DVS is a gravimetric screening technique that measures how quickly and how much of a solvent (water) is adsorbed by a sample. The relative humidity or vapor concentration surrounding the sample is varied while the change in mass of the sample is measured. […] The mass values at each relative humidity step are used to generate the isotherm. Isotherms are divided in two components: sorption for increasing humidity steps and desorption for decreasing humidity steps.
Samples were analyzed using a TA Q2000 automated dynamic vapor sorption analyzer. The samples were dried at 40° C. for 5 hours and then cooled to 25° C. with a dry nitrogen purge over them until they no longer lost mass at 0% RH.

[5] = physchem; conditions: buffered water, pH 4, aqueous buffer, thermodynamic from solid
Procedure: Milligram size (2 mg) quantities of each sample were placed into a vial. Buffered water (pH 4, 7, and 10) was added and the vials were stirred for a few minutes, followed by visual observation for remaining solids. The solvent was incrementally added until the solids were dissolved, or a maximum volume of solvent (10 mL) was added and the experiment was terminated.

[6] = tested on: 4T1 mammary tumor; test: Anti-tumor efficacy in 4T1 mouse model of metastatic mammary cancer; type: in vivo, BALB/c mice; conditions: diet with 3 g/kg chow (0.3% w/w), started 9 days post tumor injection
Excerpt: The lysine salt was incorporated into standard mouse chow at an amount of 3 g/kg chow (0.3% w/w) by Harlan Teklad, Madison Wis. Half of the mice were placed on an α-TEA-Lys diet after the tumors were established (9 days post tumor injection.) and the rest placed on an analogous nutrient diet without α-TEA-Lys which served as the control group.

[7] = Static humidity experiments, gravimetric weight change; type: physicochemical
Excerpt: Formation of hydrates can be a very slow kinetic process. A second approach to identify hydrate formation is performing static humidity experiments and monitor gravimetrically for weight change.

[8] = Oxidation Ambient (oxygen headspace, 25° C., 1 week)
[9] = Photo Stability Exposed (UV, ICH confirmatory conditions)
[10] = Solid State Ambient (25° C., 1 week)
[11] = Solution 40° C. Methanol, 1 week
[12] = Solution Ambient Methanol, 1 week

SMILES	Class (safety and pharmaceutical acceptability of the counter-ions) [1]	HLPC Total Area Normalization - Area % Purity [3, 8] [Area %]	HLPC Total Area Normalization - Area % Purity ([3]; Photo Stability Dark Control) [Area %]	HLPC Total Area Normalization - Area % Purity [3, 9] [Area %]	HLPC Total Area Normalization - Area % Purity ([3]; Solid State 60° C., 1 week) [Area %]	HLPC Total Area Normalization - Area % Purity [3, 10] [Area %]	HLPC Total Area Normalization - Area % Purity [3, 11] [Area %]	HLPC Total Area Normalization - Area % Purity [3, 12] [Area %]	also measured
[K+].[OH-] [potassium hydroxide]	I	–	–	–	–	–	–	–	–
CN(C)CCO [deanol, N,N-dimethylethanolamine, N,N-dimethylethanolamine]	–	–	–	–	–	–	–	–	pKa [2]: 8.8
[Ca+2].[OH-].[OH-] [calcium hydroxide]	I	–	–	–	–	–	–	–	–
Cc1c(C)c2c(c(C)c1OCC(=O)O)CC[C@@](C)(CCC[C@H](C)CCC[C@H](C)CCCC(C)C)O2 [α-TEA free acid, α-tocopheryloxyacetic acid, reference compound]	–	97.8	97.7	98.2	98.0	97.8	94.6	96.0	DVS conclusion on hydrate formation / deliquescence ([4]; 0 to 95% RH): does not form hydrates or exhibit deliquescence; DVS total weight gain [4]: about 0.2%; solubility [5]: < 200 µg/mL
NCCCC[C@H](N)C(=O)O [L-Lysine]	I	–	–	–	–	–	–	–	–
Cc1c(C)c2c(c(C)c1OCC(=O)O)CCC(C)(CCCC(C)CCCC(C)CCCC(C)C)O2.NCCCC[C@H](N)C(=O)O (stereo not drawn) [α-TEA lysine salt]	–	98.8	98.7	98.8	98.7	98.8	98.2	98.8	average tumor size compared to control diet [6]: significant decrease in average tumor size; complete tumor regression, share of the mice treated [6]: about 25%; survival compared to control diet (Kaplan-Meier) [6]: increased survival; Hydration properties Static 75% RH 30 Days, weight gain ([7]; 75% RH): 0.6 wt% wt %; static humidity weight gain ([7]; 75% RH, 33 days): 0.6%; static humidity weight gain ([7]; 84% RH, 9 days): 1.8%; Stability compared to free acid [3]: more stable; Counter Ion Class [1]: I; Hydration properties DVS: hydrate formed [4]: hydrate; DVS total weight gain [4]: about 12%; DVS residual weight after desorption cycle ([4]; corresponds to a putative hydrate): 2 weight %
[Mg+2].[OH-].[OH-] [magnesium hydroxide]	I	–	–	–	–	–	–	–	–
Cc1c(C)c2c(c(C)c1OCC(=O)O)CCC(C)(CCCC(C)CCCC(C)CCCC(C)C)O2.NC(CO)(CO)CO (stereo not drawn) [α-TEA tris salt]	–	98.5	98.2	98.7	98.4	98.6	98.2	98.5	Hydration properties Static 75% RH 30 Days, weight gain ([7]; 75% RH): 4.0 wt %; static humidity weight gain ([7]; 75% RH, 33 days): 4.0%; Stability compared to free acid [3]: more stable; Hydration properties DVS: hydrate formed [4]: hemihydrate
C[N+](C)(C)CCO [Choline]	I	–	–	–	–	–	–	–	pKa [2]: >11
N=C(N)NCCC[C@H](N)C(=O)O [L-Arginine]	I	–	–	–	–	–	–	–	–
Cc1c(C)c2c(c(C)c1OCC(=O)O)CCC(C)(CCCC(C)CCCC(C)CCCC(C)C)O2.N=C(N)NCCC[C@H](N)C(=O)O (stereo not drawn) [α-TEA arginine salt]	–	98.4	97.9	98.5	98.6	98.6	98.2	98.4	Hydration properties Static 75% RH 30 Days, weight gain ([7]; 75% RH): 0.7 wt %; static humidity weight gain ([7]; 75% RH, 33 days): 0.7%; static humidity weight gain ([7]; 84% RH, 9 days): 2.3%; Stability compared to free acid [3]: more stable; Counter Ion Class [1]: I; Hydration properties DVS: hydrate formed [4]: hemihydrate
